According to patent publication US10697027B2, “Biological detection method for dioxins in serum, and diagnostic use therefor in metabolic syndrome and related conditions” (priority 2010, dated 2020):

How the values were obtained:
[1] = system: HePa1c1c7 cell line expressing pCYP1A1-luc stably; test: Response test with the transformed cell line expressing the recombinant reporter gene (luciferase assay); assay type: cell-based, mouse; details: for luciferase activity over the treatment time: treatment time 4, 8 (or 24) hours
Description: The cell line stably expressing pCYP1A1-luc constructed in Example <1-2> was distributed in 60 mm culture dish at the density of 1×10^5 cells, followed by culture for 48 hours. Upon completion of the culture, the medium was replaced with DMEM supplemented with 0.5% charcoal-stripped FBS but not supplemented with phenol red, and indole-3-carbinol was treated thereto at the concentrations of 0, 0.01, 0.1, 1, 10, and 100 μM for 4, 8, or 24 hours. Then, the cells were collected, followed by luciferase assay.
The cell line stably expressing pCYP1A1-luc constructed in Example <1-2> was distributed in 60 mm culture dish at the density of 2×10^5 cells, followed by culture for 24 hours. Upon completion of the culture, the medium was replaced with DMEM supplemented with 0.5% charcoal-stipped FBS but not supplemented with phenol red, and 2,3,7,8-tetrachlorodibenzo-p-dioxin (TCDD) was treated thereto at the concentrations of 0, 0.1, 1, 10, 100, and 1000 pM for 4, or 8 hours. Then, the cells were collected, followed by luciferase assay.

[2] = mouse treated with TCDD; cited from earlier work

Row | SMILES | luciferase activity compared with control not treated with TCDD ([1]; 10~1000 pM, treated for 4 or 8 hours) | luciferase activity over the treatment time [1] | ATP synthesis [2] | ubiquinone (CoQ) in the liver [2] | luciferase activity compared with non-treated control group ([1]; 0.001~10 μM, treated for 4, 8 or 24 hours) | luciferase activity increase ([1]; concentration of 100 μM, treated for 4, 8 or 24 hours)
1 | Clc1cc2c(cc1Cl)Oc1cc(Cl)c(Cl)cc1O2 [TCDD, 2,3,7,8-tetrachlorodibenzo-p-dioxin] | significantly increased | increased over the treatment time, which was not so significant | suppressed | reduced |  | 
2 | OCc1c[nH]c2ccccc12 [indol-3-carbinol, indole-3-carbinol] |  | significant difference over the time was not detected |  |  | increased dose-dependently | at least 3 times
